From patent publication US20260224536A1, “ARYL HETEROCYCLIC KV1.3 INHIBITOR, PREPARATION METHOD THEREFOR, AND USE THEREOF” (SHANGHAI SHENSHI WISE TECHNOLOGY CO., LTD., priority 2022, published 2026)

How the values were obtained:
Format in all cases: cell-based
hERG potassium channel = target: T1, hERG potassium channel (Homo sapiens, UniProt Q12809); assay: Whole-cell voltage clamp assay for inhibitory activity against hERG; details: CHO cells stably expressing hERG, peak tail current at -50 mV, read-out: IC50 for inhibition of hERG
T1 construct: expressed in transfected cells
T1 sequence (Q12809 whole entry): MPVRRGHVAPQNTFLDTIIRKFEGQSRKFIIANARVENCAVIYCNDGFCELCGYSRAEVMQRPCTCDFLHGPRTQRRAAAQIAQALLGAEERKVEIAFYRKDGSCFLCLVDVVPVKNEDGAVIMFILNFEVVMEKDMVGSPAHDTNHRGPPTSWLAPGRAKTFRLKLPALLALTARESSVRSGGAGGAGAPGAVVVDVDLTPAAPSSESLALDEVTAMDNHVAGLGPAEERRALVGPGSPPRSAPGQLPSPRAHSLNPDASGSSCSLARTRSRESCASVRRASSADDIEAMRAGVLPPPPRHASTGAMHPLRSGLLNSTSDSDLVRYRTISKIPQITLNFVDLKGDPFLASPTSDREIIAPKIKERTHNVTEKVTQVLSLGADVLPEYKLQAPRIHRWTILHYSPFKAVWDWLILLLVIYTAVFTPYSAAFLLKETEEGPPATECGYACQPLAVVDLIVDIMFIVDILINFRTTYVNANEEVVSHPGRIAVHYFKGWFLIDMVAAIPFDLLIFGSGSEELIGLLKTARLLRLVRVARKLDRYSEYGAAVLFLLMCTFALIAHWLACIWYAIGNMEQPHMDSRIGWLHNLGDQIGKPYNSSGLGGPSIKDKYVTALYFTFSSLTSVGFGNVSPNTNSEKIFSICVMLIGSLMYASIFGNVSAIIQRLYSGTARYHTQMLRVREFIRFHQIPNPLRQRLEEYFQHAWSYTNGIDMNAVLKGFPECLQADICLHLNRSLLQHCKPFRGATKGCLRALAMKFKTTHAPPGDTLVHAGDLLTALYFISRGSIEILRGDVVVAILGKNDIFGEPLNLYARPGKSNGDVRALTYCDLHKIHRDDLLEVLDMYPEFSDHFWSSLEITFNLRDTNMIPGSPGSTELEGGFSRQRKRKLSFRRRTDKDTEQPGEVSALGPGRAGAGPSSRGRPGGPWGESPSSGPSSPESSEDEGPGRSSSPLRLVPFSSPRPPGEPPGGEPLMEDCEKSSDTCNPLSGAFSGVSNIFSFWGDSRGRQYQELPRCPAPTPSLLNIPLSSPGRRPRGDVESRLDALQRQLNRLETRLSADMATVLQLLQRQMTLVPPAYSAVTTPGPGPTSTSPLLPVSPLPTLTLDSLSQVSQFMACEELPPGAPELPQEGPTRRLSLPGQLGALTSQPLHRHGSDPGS
Method: CHO cells stably expressing hERG were cultured in 35 mm diameter cell culture dishes at 37° C. in a 5% CO2 incubator. The cells were passaged at a ratio of 1:5 every 48 h. The culture medium recipe was as follows: 90% F12 (Invitrogen), 10% fetal bovine serum (Gibco), 100 µg/mL G418 (Invitrogen), and 100 µg/mL Hygromycin B (Invitrogen). On the day of the test, the cell culture fluid was aspirated, and the cells were rinsed once with the extracellular fluid. […] The digestion solution was then aspirated, and the cells were resuspended with the extracellular fluid and transferred to an experimental dish for electrophysiological recording for later use. hERG potassium channel currents were recorded at room temperature by the whole-cell voltage clamp technique in the CHO cells stably expressing hERG potassium channels. Glass microelectrodes were formed by pulling a glass electrode blank (BF150-86-10, Sutter) using a puller. The tip resistance after perfusion with the electrode internal solution was about 2-5 MΩ. […] The clamping voltage and data recording were controlled and recorded by a computer with the pClamp software, with a sampling frequency of 10 kHz and a filtering frequency of 2 kHz. […] This voltage stimulation was applied every 5 s, and after the hERG potassium currents were determined to be stable (for 1 min), the drug administration process was started. […]

Kv1.5 potassium channel = Kv1.5 potassium channel (Homo sapiens, UniProt P22460); assay: Whole-cell patch-clamp assay for inhibitory activity against Kv1.5 (steady state current); details: HEK293 cells stably expressing Kv1.5, patch-clamp, read-out: IC50 for inhibition of Kv1.5
Sequence of Kv1.5 potassium channel (P22460 whole entry): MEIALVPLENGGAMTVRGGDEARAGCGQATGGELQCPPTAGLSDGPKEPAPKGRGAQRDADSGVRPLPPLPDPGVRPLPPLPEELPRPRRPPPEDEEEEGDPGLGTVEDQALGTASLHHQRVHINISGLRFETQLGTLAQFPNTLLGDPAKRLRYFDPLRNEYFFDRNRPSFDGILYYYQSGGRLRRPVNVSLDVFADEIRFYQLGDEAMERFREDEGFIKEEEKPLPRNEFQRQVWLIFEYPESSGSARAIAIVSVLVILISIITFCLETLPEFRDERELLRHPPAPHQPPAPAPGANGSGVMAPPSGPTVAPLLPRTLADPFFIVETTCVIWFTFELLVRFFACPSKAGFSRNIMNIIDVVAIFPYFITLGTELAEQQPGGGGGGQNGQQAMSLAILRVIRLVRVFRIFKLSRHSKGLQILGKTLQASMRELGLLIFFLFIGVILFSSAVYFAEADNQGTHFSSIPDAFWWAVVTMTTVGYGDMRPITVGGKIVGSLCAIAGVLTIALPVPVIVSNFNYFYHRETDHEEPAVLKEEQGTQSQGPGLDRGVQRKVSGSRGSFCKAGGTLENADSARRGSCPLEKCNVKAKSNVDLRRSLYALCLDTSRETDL
Method: (§1) HEK293 cells stably expressing Kv1.X (Kv1.1, Kv1.2, Kv1.3, Kv1.4, Kv1.5) potassium channels were cultured in DMEM medium containing 10% fetal bovine serum and 800 μg/mL G418 (geneticin) at a culture temperature of 37° C. and a carbon dioxide concentration of 5%.
(§2) The extracellular fluid contained […], 3.5 mM KCl, 1 mM MgCl2·6H2O, 2 mM CaCl2·2H2O, 10 mM D-glucose, 10 mM HEPES, 1.25 mM NaH2PO4·2H2O, and the pH was adjusted to 7.4 with NaOH. The intracellular fluid contained 20 mM KCl, 115 mM K-Aspartic, 1 mM MgCl2·6H2O, 5 mM EGTA, 10 mM HEPES, 2 mM Na2-ATP, and the pH was adjusted to 7.2 with KOH.
(§3) The voltage stimulation protocol for recording whole-cell Kv1.X potassium currents via patch-clamp was as follows. After formation of a whole-cell seal, the cell membrane voltage was clamped at −80 mV, and then stepped to +40 mV for 500 ms. […] Then, a slow capacitance compensation was given, and the membrane capacitance and series resistance were recorded. […]
(§4) Once the whole-cell recorded Kv1.X current stabilized, drug administration was started. […] For each cell, the current detected in the compound-free extracellular liquid was used as its own control group. […]
(§5) and then the inhibition rate corresponding to each drug concentration was calculated
(§6) Subsequently, the mean, standard deviation (SD), and standard error (SE) were calculated for the inhibition rate corresponding to each concentration. […]

Kv1.1 potassium channel = target: T2, Kv1.1 potassium channel (Homo sapiens, UniProt Q09470); assay: Whole-cell patch-clamp assay for inhibitory activity against Kv1.1 (steady state current); details: HEK293 cells stably expressing Kv1.1, patch-clamp, read-out: IC50 for inhibition of Kv1.1
T2 construct: expressed in transfected cells
T2 sequence (Q09470 whole entry): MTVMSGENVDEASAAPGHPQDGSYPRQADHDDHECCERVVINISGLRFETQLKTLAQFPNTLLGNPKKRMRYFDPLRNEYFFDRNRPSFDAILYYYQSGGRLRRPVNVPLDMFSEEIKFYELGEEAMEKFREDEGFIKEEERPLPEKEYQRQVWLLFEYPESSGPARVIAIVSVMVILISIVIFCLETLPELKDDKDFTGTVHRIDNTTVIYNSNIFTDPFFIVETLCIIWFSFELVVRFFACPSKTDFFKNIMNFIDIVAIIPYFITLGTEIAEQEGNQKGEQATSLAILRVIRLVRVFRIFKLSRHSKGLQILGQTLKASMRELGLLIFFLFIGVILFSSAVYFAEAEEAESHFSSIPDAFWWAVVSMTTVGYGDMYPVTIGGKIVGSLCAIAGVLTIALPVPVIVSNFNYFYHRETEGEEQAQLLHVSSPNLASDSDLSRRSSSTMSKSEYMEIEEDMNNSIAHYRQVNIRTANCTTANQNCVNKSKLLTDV
Method: as §1, §2, §3, §4, §5, §6

Kv1.3 potassium channel = Kv1.3 potassium channel (Homo sapiens, UniProt P22001); assay: Whole-cell patch-clamp assay for inhibitory activity against Kv1.3 (peak current); details: HEK293 cells stably expressing Kv1.3, patch-clamp
Sequence of Kv1.3 potassium channel (P22001 whole entry, the tested form may be a part): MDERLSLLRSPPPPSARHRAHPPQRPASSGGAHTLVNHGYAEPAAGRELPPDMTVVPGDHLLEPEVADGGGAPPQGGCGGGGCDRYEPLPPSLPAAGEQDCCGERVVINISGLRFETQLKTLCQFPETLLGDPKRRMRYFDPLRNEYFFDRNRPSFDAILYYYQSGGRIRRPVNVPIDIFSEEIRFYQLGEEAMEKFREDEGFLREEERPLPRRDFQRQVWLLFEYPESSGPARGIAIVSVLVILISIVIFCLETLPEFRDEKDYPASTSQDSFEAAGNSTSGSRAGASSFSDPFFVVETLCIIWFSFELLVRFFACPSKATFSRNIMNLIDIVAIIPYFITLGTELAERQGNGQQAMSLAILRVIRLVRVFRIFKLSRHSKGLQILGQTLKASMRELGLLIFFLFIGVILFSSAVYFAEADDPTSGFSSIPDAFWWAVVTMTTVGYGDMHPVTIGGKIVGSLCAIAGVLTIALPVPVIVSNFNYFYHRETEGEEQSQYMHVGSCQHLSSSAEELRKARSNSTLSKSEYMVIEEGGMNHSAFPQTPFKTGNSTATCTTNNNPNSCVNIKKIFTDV
How it was run: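 Whole-cell currents evoked by a step from −80 mV holding to +40 mV for 500 ms at room temperature. Concentrations perfused cumulatively, low to high, each for 5 min or until steady state. Peak current normalised to each cell's compound-free control; IC50 from nonlinear fit, ≥3 cells per concentration.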

Kv1.2 potassium channel = target: T3, Kv1.2 potassium channel (Homo sapiens, UniProt P16389); assay: Whole-cell patch-clamp assay for inhibitory activity against Kv1.2 (steady state current); details: HEK293 cells stably expressing Kv1.2, patch-clamp, read-out: IC50 for inhibition of Kv1.2
T3 construct: expressed in transfected cells
T3 sequence (P16389 whole entry): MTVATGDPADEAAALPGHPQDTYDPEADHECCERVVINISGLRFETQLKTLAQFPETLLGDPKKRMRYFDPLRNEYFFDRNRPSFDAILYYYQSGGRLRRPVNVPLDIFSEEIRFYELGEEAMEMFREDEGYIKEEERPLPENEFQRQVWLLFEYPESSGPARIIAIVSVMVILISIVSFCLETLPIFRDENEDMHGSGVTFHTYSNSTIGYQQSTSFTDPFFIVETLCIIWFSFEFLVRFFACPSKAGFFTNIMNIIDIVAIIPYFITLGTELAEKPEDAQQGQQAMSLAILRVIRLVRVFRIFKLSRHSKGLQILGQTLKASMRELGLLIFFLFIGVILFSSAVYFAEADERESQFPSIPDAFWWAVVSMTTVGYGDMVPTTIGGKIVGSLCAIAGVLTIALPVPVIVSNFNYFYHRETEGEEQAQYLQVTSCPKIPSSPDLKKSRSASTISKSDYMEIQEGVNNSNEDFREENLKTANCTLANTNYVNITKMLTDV
Method: as §1, §2, §3, §4, §5, §6

Kv1.4 potassium channel = Kv1.4 potassium channel (Homo sapiens, UniProt P22459); assay: Whole-cell patch-clamp assay for inhibitory activity against Kv1.4 (peak current); details: HEK293 cells stably expressing Kv1.4, patch-clamp, read-out: IC50 for inhibition of Kv1.4
Sequence of Kv1.4 potassium channel (P22459 whole entry): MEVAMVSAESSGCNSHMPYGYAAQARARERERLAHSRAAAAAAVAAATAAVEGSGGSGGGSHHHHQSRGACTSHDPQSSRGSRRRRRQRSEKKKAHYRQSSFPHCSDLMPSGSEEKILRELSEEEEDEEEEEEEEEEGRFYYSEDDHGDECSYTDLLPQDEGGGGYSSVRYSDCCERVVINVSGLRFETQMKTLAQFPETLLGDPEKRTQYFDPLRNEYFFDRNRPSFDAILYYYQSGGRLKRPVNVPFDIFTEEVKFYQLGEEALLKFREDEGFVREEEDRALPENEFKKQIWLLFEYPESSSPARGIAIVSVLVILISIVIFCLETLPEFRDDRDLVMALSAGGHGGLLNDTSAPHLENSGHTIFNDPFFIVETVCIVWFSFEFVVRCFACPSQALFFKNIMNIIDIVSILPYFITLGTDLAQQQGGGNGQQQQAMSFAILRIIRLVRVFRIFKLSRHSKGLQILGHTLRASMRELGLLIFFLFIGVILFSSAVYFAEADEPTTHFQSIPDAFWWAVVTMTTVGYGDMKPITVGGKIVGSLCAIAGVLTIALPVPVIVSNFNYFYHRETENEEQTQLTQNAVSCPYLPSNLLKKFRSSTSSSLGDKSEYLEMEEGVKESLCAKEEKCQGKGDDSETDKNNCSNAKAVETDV
Method: as §1, §2, §3, §4, §5, §6

SMILES	IC50 (hERG potassium channel) [nM]	IC50 (Kv1.5 potassium channel) [nM]	IC50 (Kv1.1 potassium channel) [nM]	IC50 (Kv1.3 potassium channel) [nM]	IC50 (Kv1.2 potassium channel) [nM]	IC50 (Kv1.4 potassium channel) [nM]
OCc1nnc2n1C[C@H](c1c(O)ccc(Cl)c1Cl)C2 [Example 2, (S)-3,4-dichloro-2-(3-(hydroxymethyl)-6,7-dihydro-5H-pyrrolo[2,1-c][1,2,4]triazol-6-yl)phenol]	> 30000	> 100000	> 100000	28.1	> 100000	> 30000
Oc1ccc(Cl)c(Cl)c1[C@@H]1Cc2nnc([C@@H]3CCOC3)n2C1 [Example 54, 3,4-Dichloro-2-((S)-3-((S)-tetrahydrofuran-3-yl)-6,7-dihydro-5H-pyrrolo[2,1-c][1,2,4]triazol-6-yl)phenol]	> 30000	> 100000	> 100000	7.7	> 100000	> 30000
CCn1ncc2c1C[C@@H](c1c(O)ccc(Cl)c1Cl)C2 [Example 117, (S)-3,4-dichloro-2-(1-ethyl-1,4,5,6-tetrahydrocyclopenta[c]pyrazol-5-yl)phenol]				65		
Oc1ccc(Br)c(Br)c1C1Cc2nnc([C@@H]3CCOC3)n2C1 (stereo partly drawn) [Example 119, 3,4-Dibromo-2-(3-((S)-tetrahydrofuran-3-yl)-6,7-dihydro-5H-pyrrolo[2,1-c][1,2,4]triazol-6-yl)phenol]				6.54		
Oc1ccc(Br)c(Cl)c1C1Cc2nnc([C@@H]3CCOC3)n2C1 (stereo partly drawn) [Example 120, (S)-4-Bromo-3-chloro-2-(3-(tetrahydrofuran-3-yl)-6,7-dihydro-5H-pyrrolo[2,1-c][1,2,4]triazol-6-yl)phenol]				20.2		
CC(C)N1CCN(C(=O)c2cnc3n2C[C@H](c2c(O)ccc(Cl)c2Cl)C3)CC1 [Example 121, (S)-(6-(2,3-Dichloro-6-hydroxyphenyl)-6,7-dihydro-5H-pyrrolo[1,2-a]imidazol-3-yl)(4-isopropylpiperazin-1-yl)methanone]				9.68		
